Experiments:
Assay type in all cases: cell-based
[1] = system: human gastric cancer cells (SNU-1); assay: Labeled sugar incorporation, fluorescence microscopy image analysis (positive rate); conditions: threshold value 490
From the text: (§1) In accordance with the conventional method, cultured human fibrosarcoma cell line HT1080 (DS Pharma Biomedical Co., Ltd.) was harvested with trypsin (Invitrogen). The human gastric cancer cell line SNU-1 (ATCC), which is a suspension cell line, was directly harvested without any trypsin treatment. The cell suspension of the harvested cancer cells was centrifuged, and the supernatant was removed. The cells were resuspended with Dulbecco's PBS (−) (Nissui Pharmaceutical Co., Ltd.) and centrifuged, and the supernatant was removed again.
The number of the cells was counted for each cell line using a hemacytometer in accordance with the conventional method, and then 10^5 to 10^6 cells per sample (cell suspension) was aliquoted. Each of the sample was centrifuged to remove the supernatant. Subsequently, 2-NBDG (Wako Pure Chemical Industries, Ltd.; at the final concentration given in Table 3 or 4) dissolved in Dulbecco's PBS (−) was added thereto, and the cells were suspended well. […] The image was captured with a fluorescence microscope (Nikon Corp.) using B-2A filter combination (Nikon Corp.). […] EX (excitation wavelength): 475±15 nm, DM: 505 nm or longer, BA (fluorescence wavelength) 520 nm or longer.
(§2) The acquired images were analyzed using an image analysis software NIS-ELEMENTS (trade name, Nikon Corp.) to evaluate the fluorescence intensity of the cell. […]

[2] = system: human fibrosarcoma cell line HT1080; assay: as above; conditions: for Positive rate (Cancer cells): Fibrosarcoma, threshold value 370; for Positive rate of cancer cells: fibrosarcoma cell line
From the text: as §1
When performing the hemolyzing treatment, the blood cell fraction collected as described above was hemolyzed using ammonium chloride (STEMCELL Technologies) according to the manufacture's manuals.
(§3) The number of the cells was counted for each cell line using a hemacytometer in accordance with the conventional method, and then 10^5 to 10^6 cells per sample (cell suspension) was aliquoted. Each of the sample was centrifuged to remove the supernatant. Subsequently, 2-NBDG (Wako Pure Chemical Industries, Ltd.; at the final concentration given in Table 3 or 4) dissolved in Dulbecco's PBS (−) was added thereto, and the cells were suspended well. After the reaction, Dulbecco's PBS (−) was added to the mixture, and the resultant was centrifuged to remove the supernatant. The cells were resuspended with Dulbecco's PBS (−) and centrifuged, and the supernatant was removed again. The steps of resuspending cells with Dulbecco's PBS (−), centrifuging and removing the supernatant were then repeated 2 to 3 times, thereby washing the cells thoroughly. The cells were resuspended with Dulbecco's PBS (−), the concentration thereof was adjusted, and then added dropwise to a 384-well plate. The plate was centrifuged to spin down the cells. The image was captured with a fluorescence microscope (Nikon Corp.) using B-2A filter combination (Nikon Corp.). The B-2A set covers the following wavelengths. EX (excitation wavelength): 475±15 nm, DM: 505 nm or longer, BA (fluorescence wavelength) 520 nm or longer.
as §2
(§4) In a manner similar to Example 2, each of human breast adenocarcinoma cells (cell line name: MCF-7; DS Pharma Biomedical Co., Ltd.), human colon adenocarcinoma cells (cell line name: SW620; DS Pharma Biomedical Co., Ltd.), human prostate cancer cells (cell line name: PC3; DS Pharma Biomedical Co., Ltd.), human alveolar epithelial cancer cells (cell line name: NCI-H358; DS Pharma Biomedical Co., Ltd.), human gastric cancer cells (cell line name: SNU-1; ATCC) and human fibrosarcoma cells (cell line name: HT1080; DS Pharma Biomedical Co., Ltd.) was detected with the labeled sugar (2-NBDG).

[3] = system: human colon adenocarcinoma cells (SW620); assay: as above; conditions: threshold value 280
Procedure: as §3
(§5) The acquired images were analyzed using an image analysis software NIS-ELEMENTS (trade name, Nikon Corp.) to evaluate the fluorescence intensity of the cell.
as §4

[4] = system: human prostate cancer cells (PC3); assay: as above; conditions: hemolyzed, 10 mM, 5 min, 23° C., threshold value 880
Procedure: as §3, §5, §4

[5] = system: human breast adenocarcinoma cells (MCF-7); assay: as above; conditions: hemolyzed, 10 mM, 5 min, 23° C., threshold value 330
Procedure: as §3, §5, §4

[6] = system: human alveolar epithelial cancer cells (NCI-H358); assay: as above; conditions: hemolyzed, 10 mM, 5 min, 23° C., threshold value 370
Procedure: as §3, §5, §4

[7] = system: normal human dermal fibroblast cell NHDF; assay: Aminolevulinic acid labeling with or without iron ion and reducing agent (degree of false-positive results); conditions: 0.3 mM, 37° C., 60 min
From the text: (§6) In accordance with the conventional method, human fibrosarcoma cell HT-1080 (DS Pharma Biomedical Co., Ltd.) and normal human dermal fibroblast cell NHDF (Lonza) in culture were harvested with trypsin (Invitrogen). The cell suspension of the harvested cancer cells was centrifuged, and the supernatant was removed. The cells were then resuspended with Dulbecco's PBS (+) (Nissui Pharmaceutical Co., Ltd.) and centrifuged, and the supernatant was removed again.
(§7) The number of the cells was counted using a hemacytometer in accordance with the conventional method, and then 10^5 to 10^6 cells per sample (cell suspension) was aliquoted. The sample was centrifuged to remove the supernatant. In the case an iron ion and a reducing agent were added, 0.3 mM of aminolevulinic acid (trade name: 5-AMINOLEVULINATE HYDROCHLORIDE, Cosmo Bio Co., Ltd.), 0.3 mM of FeCl2 and 0.3 mM of ascorbic acid dissolved in Dulbecco's PBS (+) were added thereto, and the cells were suspended well. In the case an iron ion and a reducing agent were not added, 0.3 mM of aminolevulinic acid dissolved in Dulbecco's PBS (+) was added singly, and the cells were suspended well. Each of the mixture was then allowed to react at 37° C. for 60 minutes. The number of cells was adjusted, and then the cells were added dropwise to a 384-well plate. The plate was centrifuged to spin down the cells.
(§8) The fluorescence filter set: EX (excitation wavelength) 402±7.5, DM 430 or longer, BA (fluorescence wavelength) 625±15.

[8] = system: human fibrosarcoma cell HT-1080; assay: Aminolevulinic acid labeling with or without iron ion and reducing agent (positive rate); conditions: 0.3 mM, 37° C., 60 min
From the text: as §6
as §7, with “The number of cells was adjusted, and then the cells were added dropwise to a 384-well plate. The plate was centrifuged to spin down the cells.” left out
as §8

[9] = hemolyzed, 10 mM, 5 min, 23° C.
[10] = single, Glucose conc.: 1 mM, Temp.: 37° C., Time: 30 min
[11] = Ascorbic acid 0.3 mM, FeC12 0.3 mM

## O=[N+]([O-])c1ccc(N[C@H]2C(O)O[C@H](CO)[C@@H](O)[C@@H]2O)c2nonc12 (stereo partly drawn) [2-NBDG, 2-[N-(7-nitrobenz-2-oxa-1,3-diazol-4-yl)amino]-2-deoxy-D-glucose]
[1]; [9]
  Positive rate (Cancer cells): 50.0%
[1]; [10]
  Positive rate (Cancer cells): 50.0%
[2]; [9]
  Positive rate (Cancer cells): 100.0%
  Positive rate (Fibrosarcoma cell line): 100.0%
[2]; [10]
  Positive rate (Cancer cells): 100.0%
[2]; Mean luminance, hemolyzed, 10 mM, 5 min, 23° C., threshold value 436
  Positive rate of cancer cells: 100.0%
[2]; Total luminance, hemolyzed, 10 mM, 5 min, 23° C., threshold value 35,000
  Positive rate of cancer cells: 90.7%
[2]; hemolyzed, 0.1 mM, 37° C., 30 min, threshold value 380
  Positive rate (HT1080 cells): 33.3%
[2]; hemolyzed, 1 mM, 37° C., 30 min, threshold value 520
  Positive rate (HT1080 cells): 73.1%
[2]; hemolyzed, 10 mM, 37° C., 30 min, threshold value 1150
  Positive rate (HT1080 cells): 95.0%
[2]; hemolyzed, 4° C., 10 mM, 5 min, threshold value 640
  Positive rate (HT1080 cells): 79.0%
[2]; hemolyzed, 23° C., 10 mM, 5 min, threshold value 640
  Positive rate (HT1080 cells): 81.1%
[2]; hemolyzed, 37° C., 10 mM, 5 min, threshold value 750
  Positive rate (HT1080 cells): 89.4%
[2]; hemolyzed, 5 min, 10 mM, 37° C., threshold value 570
  Positive rate (HT1080 cells): 119.8%
[2]; hemolyzed, 30 min, 10 mM, 37° C., threshold value 880
  Positive rate (HT1080 cells): 107.8%
[2]; hemolyzed, 60 min, 10 mM, 37° C., threshold value 750
  Positive rate (HT1080 cells): 102.9%
[2]; not hemolyzed, 10 mM, 5 min, 23° C.
  Positive rate (Fibrosarcoma cell line): 92.6%
[2]; without hemolyzing treatment, 0.1 mM, 37° C., 30 min, threshold value 280
  Positive rate (HT1080 cells): 51.8%
[2]; without hemolyzing treatment, 1 mM, 37° C., 30 min, threshold value 330
  Positive rate (HT1080 cells): 89.5%
[2]; without hemolyzing treatment, 10 mM, 37° C., 30 min, threshold value 450 (concentration series)
  Positive rate (HT1080 cells): 90.0%
[2]; without hemolyzing treatment, 4° C., 10 mM, 5 min, threshold value 310
  Positive rate (HT1080 cells): 94.9%
[2]; without hemolyzing treatment, 23° C., 10 mM, 5 min, threshold value 360
  Positive rate (HT1080 cells): 92.6%
[2]; without hemolyzing treatment, 37° C., 10 mM, 5 min, threshold value 390
  Positive rate (HT1080 cells): 101.5%
[2]; without hemolyzing treatment, 5 min, 10 mM, 37° C., threshold value 380
  Positive rate (HT1080 cells): 92.6%
[2]; without hemolyzing treatment, 30 min, 10 mM, 37° C., threshold value 450 (time series)
  Positive rate (HT1080 cells): 97.1%
[2]; without hemolyzing treatment, 60 min, 10 mM, 37° C., threshold value 500
  Positive rate (HT1080 cells): 98.4%
[3]; [9]
  Positive rate (Cancer cells): 100.0%
[3]; [10]
  Positive rate (Cancer cells): 100.0%
[4]
  Positive rate (Cancer cells): 69.8%
[5]
  Positive rate (Cancer cells): 100.0%
[6]
  Positive rate (Cancer cells): 83.0%

## NCC(=O)CCC(=O)O [aminolevulinic acid, 5-amino-4-oxopentanoic acid]
[7]; Ascorbic acid 0, FeC12 0
  Negative rate (Normal epithelial cells (NHDF)): 37.7%
  Positive rate (Normal epithelial cells (NHDF)): 62.3%
[7]; [11]
  Negative rate (Normal epithelial cells (NHDF)): 85.7%
  Positive rate (Normal epithelial cells (NHDF)): 14.3%
[8]; Ascorbic acid 0, FeC12 0
  Positive rate (Fibroblast sarcoma cell (HT-1080)): 97.3%
[8]; [11]
  Positive rate (Fibroblast sarcoma cell (HT-1080)): 79.3%

Reference: patent US9645154B2, “Method for detecting cancer cell” (ARKRAY, Inc., priority 2010, dated 2017)
